Results reported in US20240197760A1, “ACTIVATORS OF INTEGRATED STRESS RESPONSE PATHWAY FOR PROTECTION AGAINST FERROPTOSIS” (Burke Neurological Institute, priority 2021, published 2024).

Experiments:
AMP/ATP ratio = AMP/ATP ratio from metabolic profiling of mouse primary neurons; assay type: cell-based; conditions: 10 mM, 8 h
Method: Targeted Metabolite profiling was performed according to a method described in a previous publication (Chen et al., 2016). Polar metabolites were extracted using cold 80% methanol. The extracts were dried completely with a Speedvac and redissolved in water before it was applied to the hydrophilic interaction chromatography LC-MS. The sample injection order was randomized. Metabolites were measured on a Q Exactive Orbitrap mass spectrometer (Thermo Scientific), which was coupled to a Vanquish UPLC system (Thermo Scientific) via an Ion Max ion source with a HESI II probe (Thermo Scientific). A Sequant ZIC-[…] column (2.1 mm i.d.×150 mm, particle size of 5 μm, Millipore Sigma) was used for separation of metabolites. A 2.1×20 mm guard column with the same packing material was used for protection of the analytical column. Flow rate was set at […]. […] The MS data was processed using XCalibur 4.1 (Thermo Scientific) to extract the metabolite signal intensity for relative quantitation. […] In pathway enrichment analysis, a single P value is calculated for each metabolic pathway. Pathway topology analysis measured the significance of a given experimentally identified metabolite in a pre-defined metabolic pathway.

Creb1, Bdnf, Rbbp4 = assay: Plasticity gene expression by quantitative real time PCR in mouse primary neurons; assay type: cell-based
Method: Primary immature neuronal cultures were prepared from cerebral cortex of E14 embryos (day 14 of gestation) of CD1 mice under sterile conditions. Dissected cortices were incubated at 37° C. for 20 min in EBSS solution containing papain, L-cystine and EDTA, which was activated at 37 °C for 30 min and then was filtered through […] (Millipore, catalog number—SCGP00525). Cortices were then mechanically dissociated by trituration with glass pipettes. The rDNase was added in dissociated cells followed by incubation of these dissociated cells at 37 °C for 3 min. Thereafter, these cells were centrifuged at 2800 rpm for 5 min. Then supernatant was discarded, and cell were resuspended gently in a 5 ml mixture of EBSS and 10/10 solution (4:1 ratio). Then 5 ml of 10/10 solution was added gently on top and these resuspended cells were centrifuged at 2800 rpm for 10 min. Supernatant was again discarded and cells were resuspended in 10 ml MEM, Glutamax supplement (Thermo Fisher Scientific, Catalog number—41090036) containing 10% heat inactivated fetal bovine serum (Thermo Fisher Scientific, Catalog number—16140071), 5% heat inactivated horse serum (Thermo Fisher Scientific, Catalog number—26050088), and 1% penicillin/streptomycin (Thermo Fisher Scientific, Catalog number—15140122). Thereafter, resuspended cells were filtered through 70-micron cell strainer (Thomas Scientific, catalog number—4620F02) followed by their counting through Hemocytometer. Cells were, finally, plated at the density of 1 million cells/ml onto poly-D-Lysine (PDL; Sigma Aldrich, catalog number—P6407-10X5MG) coated pates and placed in CO2-buffered incubators at 37° C.
Total RNA was extracted from primary cortical neurons using NucleoSpin RNA II Kit (Clontech, Catalog number—740955-250). Thereafter, using the Taqman RNA-to-Ct, one step kit (Thermo Fisher Scientific, catalog number—4392938) and following the manufacturer's instructions, […] from each sample was mixed with the Taqman® Gene Expression Master Mix and Taqman® Gene Expression Assays for Creb1 (Catalog number—Mm00501607_m1), Bdnf (Catalog number—Mm04230607_s1), Rbbp4 (Catalog number—Mm00771401_g1), Bip (Catalog number—Mm00517691_m1), Trib3 (Catalog number—Mm00454879_m1), and Chac1 (Catalog number—Mm00509926_m1) with FAM labelled probe and Actin with VIC labelled probe all from Thermo Fisher Scientific on an Applied Biosystems 7500 Fast Real Time PCR System. For assessing gene expression of various specific Bdnf exons in mouse primary neurons, two step qPCR was used. Total RNA from primary cortical neurons was extracted using NucleoSpin RNA II Kit (Clontech, Catalog number—740955-250) and a total of 1.5 μg RNA was used to synthesize cDNA with the SuperScript® III First-Strand Synthesis System (Thermo Fisher Scientific, Catalog number—18080051). Quantitative RT-PCR was then performed using SYBR green (Thermo Fisher Scientific, Catalog number—4309155) on an Applied Biosystems 7500 Fast Real Time PCR System. Quantitative levels for all genes were normalized to the housekeeping gene GAPDH and expressed relative to the relevant control samples as fold change. The sequences of primers used in this part of the study were as follows: Bdnf I forward: […] (SEQ ID NO:9) and Bdnf I reverse: […] (SEQ ID NO:10); Bdnf II forward: […] (SEQ ID NO:11) and Bdnf II reverse: […] (SEQ ID NO:12); Bdnf IV forward #2: […] (SEQ ID NO:13) and Bdnf IV reverse #2: […] (SEQ ID NO:14); Bdnf VI forward: […] (SEQ ID NO:15) and Bdnf VI reverse: […] (SEQ ID NO:16); Bdnf VII forward: […] (SEQ ID NO:17) and Bdnf VII reverse: […] (SEQ ID NO:18) Bdnf IX forward: […] (SEQ ID NO:19) and Bdnf IX reverse: […] (SEQ ID NO:20); Gapdh forward #2: […] (SEQ ID NO:21) and Gapdh reverse #2: […] (SEQ ID NO: 22).

Compound: OC[C@H]1OC(O)C[C@@H](O)[C@@H]1O (stereo partly drawn) [2-DG, (4R,5S,6R)-6-(hydroxymethyl)oxane-2,4,5-triol]
- AMP-ATP ratio (AMP/ATP ratio): increase
- endogenous mRNA levels of six Bdnf transcript variants (Creb1, Bdnf, Rbbp4; 10 mM, 6 h, mouse primary neurons): all transcript variants were upregulated
- Creb1 and Bdnf gene expression with AMPK phosphorylation knocked down (Creb1, Bdnf, Rbbp4; adenoviral dominant negative AMPK, increasing concentrations of 2-DG): did not block 2-DG led increase in Creb1 and Bdnf gene expression
- Bdnf gene expression with dominant negative ATF4 (Creb1, Bdnf, Rbbp4; adenoviral dominant negative ATF4, 2-DG 6 h treatment): ATF4 knockdown blocked 2-DG led increase in Bdnf gene expression
- plasticity gene program in depolarized primary neurons (Creb1, Bdnf, Rbbp4; increasing concentration, co-treated with 25 mM KCl, 6 h): dose dependent increase in plasticity gene program
- changes in Bdnf gene expression (Creb1, Bdnf, Rbbp4; increasing concentrations 1-15 mM, primary cortical neurons): does dependent
- expression of plasticity genes Creb1, Bdnf and Rbbp4 (mRNA) (Creb1, Bdnf, Rbbp4; increasing concentrations, 6 h, mouse primary neurons): dose-dependent increase
